IC50 data for four compounds are collected here from patent US5439887A, “Peptide having antihypertensive activity free of vascoconstrictor activity” (Roussel-Uclaf, priority 1992, dated 1995).

Bridge positions count the residues as written; N and C are the ends. Peptide text beside a SMILES is read from it.

The assay addresses endothelin receptor. Kind of assay: [125I]endothelin displacement from rat posterior cortex plus cerebellum membranes. The class given is binding. The settings on record: displacement of [125I]endothelin, rat brain membranes, 25° C., 60 minutes. The method, then:
A membrane preparation was made from rat posterior cortex plus cerebellum and the tissue was ground using a POLYTRON in 50 mM Tris buffer pH 7.4. After 30 minutes at 25° C. (water bath), the homogenate was centrifuged at 30,000 g for 15 minutes (2 centrifugations interspersed by taking up in Tris buffer pH 7.4).
The pellets were resuspended in an incubation buffer (25 mM Tris, pepstatin A 5 μg/ml, aprotinin 3 μg/ml, 0.1 mM PMSF, 3 mM EDTA, 1 mM EGTA pH 7.4).
2 ml aliquots were distributed in haemolysis tubes and [125 I]endothelin (approximately 50,000 dpm/tube) and the test product were added. The product was first tested at […] in triplicate. When the test product displaced by more than 50% the radioactivity specifically bound to the receptor, it was tested again in a series of 7 concentrations to determine the concentration which inhibited by 50% the radioactivity specifically bound to the receptor. The 50% inhibitory concentration was thereby determined.
Non-specific binding was determined by adding 10^-6 M endothelin (in triplicate). The preparation was incubated at 25° C. for 60 minutes, put back on a water bath at 0° C. for 5 minutes, filtered off under reduced pressure and rinsed with […] Tris buffer pH 7.4, and the radioactivity was counted in the presence of Triton scintillant. The result was expressed directly as a 50% inhibitory concentration (IC50), that is to say as a concentration of test product, expressed in nM, required to displace 50% of the specific radioactivity bound to the receptor under study.
As to `CC[C@H](C)[C@H](NC(=O)[C@H](CC(=O)O)NC(=O)[C@H](CC(C)C)NC(=O)[C@H](Cc1c[nH]cn1)NC(=O)[C@@H]1CSSC[C@H](N)C(=O)N[C@@H](CO)C(=O)N[C@H]2CSSC[C@H](NC(=O)[C@H](CCC(=O)O)NC(=O)[C@H](CCCCN)NC(=O)[C@H](CC(=O)O)NC(=O)[C@H](CC(C)C)NC(=O)[C@H](CC(=O)O)NC(=O)[C@H](CO)NC(=O)[C@H](Cc3ccccc3)NC2=O)C(=O)N[C@@H](C(C)C)C(=O)N[C@@H](Cc2ccc(O)cc2)C(=O)N[C@@H](Cc2ccccc2)C(=O)N1)C(=O)N[C@H](C(=O)N[C@@H](Cc1c[nH]c2ccccc12)C(=O)O)[C@@H](C)CC` [Example 9] (H-CSCFSDLDKECVYFCHLDIIW-OH; disulfide 1-15, 3-11), the IC50 was determined as 2.4 nM. Consider `CC[C@H](C)[C@H](NC(=O)[C@H](CC(=O)O)NC(=O)[C@H](CC(=O)O)NC(=O)[C@H](Cc1c[nH]cn1)NC(=O)[C@@H]1CSSC[C@H](N)C(=O)N[C@@H](CO)C(=O)N[C@H]2CSSC[C@H](NC(=O)[C@H](CCC(=O)O)NC(=O)[C@H](CCCCN)NC(=O)[C@H](CC(=O)O)NC(=O)[C@H](CC(C)C)NC(=O)[C@H](Cc3c[nH]c4ccccc34)NC(=O)[C@H](CO)NC(=O)[C@H](CC(N)=O)NC2=O)C(=O)N[C@@H](C(C)C)C(=O)N[C@@H](Cc2ccc(O)cc2)C(=O)N[C@@H](Cc2ccccc2)C(=O)N1)C(=O)N[C@H](C(=O)N[C@@H](Cc1c[nH]c2ccccc12)C(=O)O)[C@@H](C)CC` [Example 12] (H-CSCNSWLDKECVYFCHDDIIW-OH; disulfide 1-15, 3-11), for which the IC50 was determined as 6.8 nM.

On to `CC[C@H](C)[C@H](NC(=O)[C@H](CC(=O)O)NC(=O)[C@H](CC(C)C)NC(=O)[C@H](Cc1c[nH]cn1)NC(=O)[C@@H]1CSSC[C@H](NC(=O)[C@@H](N)CO)C(=O)N[C@@H](Cc2ccccc2)C(=O)N[C@@H](CO)C(=O)N[C@@H](CO)C(=O)N[C@@H](CC(C)C)C(=O)N[C@@H](CC(=O)O)C(=O)N[C@@H](CCCCN)C(=O)N[C@@H](CCC(=O)O)C(=O)N[C@@H](C)C(=O)N[C@@H](C(C)C)C(=O)N[C@@H](Cc2ccc(O)cc2)C(=O)N[C@@H](Cc2ccccc2)C(=O)N1)C(=O)N[C@H](C(=O)N[C@@H](Cc1c[nH]c2ccccc12)C(=O)O)[C@@H](C)CC` [Example 15] (H-SCFSSLDKEAVYFCHLDIIW-OH; disulfide 2-14), for which the IC50 was determined as 17 nM.

Take `CC[C@H](C)[C@H](NC(=O)[C@H](CC(=O)O)NC(=O)[C@H](CC(C)C)NC(=O)[C@H](Cc1c[nH]cn1)NC(=O)[C@@H]1CSSC[C@H](NC(=O)[C@@H](N)CO)C(=O)N[C@@H](CC(N)=O)C(=O)N[C@@H](CO)C(=O)N[C@@H](Cc2c[nH]c3ccccc23)C(=O)N[C@@H](CC(C)C)C(=O)N[C@@H](CC(=O)O)C(=O)N[C@@H](CCCCN)C(=O)N[C@@H](CCC(=O)O)C(=O)N[C@@H](C)C(=O)N[C@@H](C(C)C)C(=O)N[C@@H](Cc2ccc(O)cc2)C(=O)N[C@@H](Cc2ccccc2)C(=O)N1)C(=O)N[C@H](C(=O)N[C@@H](Cc1c[nH]c2ccccc12)C(=O)O)[C@@H](C)CC` [Example 16] (H-SCNSWLDKEAVYFCHLDIIW-OH; disulfide 2-14): the IC50 amounted to 7.2 nM.
